Common to all, as to format: cell-based, human
The subject of one assay is U251. Briefly: NCI anticancer screen, U251. Conditions: U251, CNS, 48 h; for GI50 / CC50: Homo sapiens, U-251; for CC50: read-out: LC50 (the source's name).
A further assay concerns HOP-62. Description: NCI anticancer screen, HOP-62. Conditions: HOP-62, Non-Small Cell Lung, 48 h.
A further assay has as its system CCRF-CEM. Description: NCI anticancer screen, CCRF-CEM. As to conditions: Leukemia, 48 h.
A further assay relates to RPMI-8226. Description: NCI anticancer screen, RPMI-8226. Conditions: RPMI-8226, Leukemia, 48 h.
[1] abbreviates: Homo sapiens, read-out: LC50 (the source's name).

In the case of `COc1cc(CNCC2CCN(C(=O)OC(C)(C)C)CC2)cc(CN2CCN(c3ccccn3)CC2)c1O` [Compound Q012132, 2-Methoxy-4-({[(N-t-butyloxycarbonylpiperidin-4-yl)methyl]amino}methyl)-6-[(4-pyridin-2-ylpiperazin-1-yl)methyl]phenol], in the assay on U251, the GI50 amounted to 15.1 µM, the CC50 is 55.8 µM and the TGI was 29.1 µM.

Consider `CC(C)(C)OC(=O)Nc1ccc(O)c(C(=O)NCCOC(=O)NCCNC(=O)c2cc(OCc3ccccc3)ccc2OCc2ccccc2)c1` [Compound Q012052, 2-[5-(BOC-amino)-2-hydroxybenzoylamino]ethyl 2-[2,5-bis-(benzyl-oxy)benzoylamino]ethylcarbamate], for which the concentration for 50% growth inhibition (GI50) in the assay on U251 was above 100 µM; with HOP-62 (Homo sapiens), above 100 µM; with CCRF-CEM (Homo sapiens) it was above 100 µM; in the assay with RPMI-8226 (Homo sapiens), 7.58 µM.

In the case of `CCOC(=O)[C@H](Cc1ccccc1)NCc1cc(CN2CCN(c3ccccn3)CC2)c(O)c(OC)c1` [Compound Q012147T], in the assay on U251, the GI50 came to 61.9 µM.

The molecule `COc1cc(CNc2ccc(C(=O)OC(C)(C)C)cc2)cc(CN2CCN(c3ccccn3)CC2)c1O` [Compound Q012145T] came in with a GI50 with U251 of 75.9 µM.

As to `CCOC(=O)c1ccc(CNCc2cc(CN3CCN(c4ccccn4)CC3)c(O)c(OC)c2)cc1` [Compound Q012135T], the GI50 came to 15.8 µM with U251, 20.6 µM with HOP-62 (Homo sapiens), 14.1 µM with CCRF-CEM (Homo sapiens) and 7.14 µM in the assay with RPMI-8226 (Homo sapiens). The CC50 was found to be 65.7 µM with U251, 14.1 µM with CCRF-CEM (setting [1]) and 7.14 µM in the assay with RPMI-8226 (setting [1]). Besides, the total growth inhibition concentration (TGI) was 32.2 µM in the assay with U251, 43.9 µM in the assay on HOP-62, 48.4 µM with CCRF-CEM and 24.5 µM in the assay on RPMI-8226. In addition, the LC50 with HOP-62 (Homo sapiens) worked out at 93.8 µM.

(Values after patent US20080280920A1, “Plasminogen Activator Inhibitor-1 Inhibitors” (priority 2005, published 2008).)
